According to patent US20190079094A1, “SUBCELLULAR LOCALIZATION OF TARGET ANALYTES” (Beckman Coulter, Inc., priority 2016, published 2019):
Entries after “also recorded” stand apart in the source; their conditions may differ.

Experiments:
[1] = tested on: T cells and monocytes in whole blood; assay: Digitonin and TX-100 titration on whole blood, flow cytometry (CytoCalcein Violet loss, HDAC1 staining); type: cell-based; details: for concentration at which the nucleus is also permeabilized: peaked HDAC1 staining
Text: (§1) FIGS. 2A and 2B. Digitonin and TX-100 Titrations to Determine the Optimal Concentrations for Cytoplasmic vs. Nuclear Membrane Permeabilization. A) The cytoplasmic membrane in whole blood is fully permeabilized around 0.031% Digitonin, while the nucleus is also permeabilized around 0.5% Digitonin or 0.125% TX-100. B) The cytoplasmic membrane in PBMCs is fully permeabilized around 0.0016% Digitonin, while the nucleus is also permeabilized around 0.05% Digitonin or 0.025% TX-100. In this figure, the reduction in Calcein signal is indicative of permeabilization of the plasma membrane, while the peaked HDAC1 staining indicates complete nuclear permeabilization. The ledge that forms with HDAC1 prior to complete lysis is due to lysis of the endoplasmic reticulum, which also contains HDAC1.
(§2) FIG. 2 is a comparison of the efficiency of cytoplasmic vs. nuclear permeabilization of T cells and monocytes by different concentrations of Digitonin or TX-100. FIG. 2A is a titration performed on whole blood, while FIG. 2B is a titration performed on PBMCs. In both cases, the samples were first preloaded for 1 hour with 1 μM CytoCalcein Violet (AAT Bioquest, Inc) in a CO2-regulated 37° C. incubator. After 1 hour, the samples were fixed for 10 min with 4% PFA, and then incubated for 30 min at RT with the different concentrations of detergents diluted in diH2O, at a 1:5 ratio with the sample mixture. The samples were then washed and stained with anti-HDAC1-FITC (Abcam, Plc), washed again, and finally read on a Gallios flow cytometer (BCI). In this figure, cytoplasmic lysis is indicated by the loss of CytoCalcein Violet signal as it is released from the cell once the plasma membrane is permeabilized, while nuclear lysis is indicated by the increased HDAC1 signal as the nuclear membrane is permeabilized. In the case of Digitonin lysis, there is a ledge of HDAC1 staining once the plasma membrane is lysed and prior to full nuclear lysis; this is indicative of lysis of the endoplasmic reticulum, which also contains a repository of HDAC1. In whole blood, there is a working range for Digitonin between roughly 0.015% and 0.125%, where the plasma membrane is lysed, but the nucleus is not. For PBMCs, this range is roughly between 0.001% and 0.0125%.

[2] = tested on: MCF-7 cells; assay: Modified protocol with MCF-7 cells preloaded with CytoCalcein Violet; type: cell-based, human; details: for concentration permeabilizing only the plasma (cytoplasmic) membrane: loss of CytoCalcein Violet
Experimental: FIG. 4. Modified Protocol to Assess the Permeabilization of the Plasma Membrane with MCF-7 Cells. The cells were preloaded with CytoCalcein Violet, and cytoplasmic membrane permeabilization is indicated by the loss of this signal. In this experiment, 0.025% Digitonin or TX-100 permeabilized only the cytoplasm, while 0.25% of either fully permeabilized the both cytoplasmic and nuclear membranes.
In this experiment, after the cells had been plated for 24 hours, they were preloaded for 1 hour with 1 μM CytoCalcein Violet and then processed as indicated in FIG. 3. When the samples were ready for cover-slipping, mounting medium without DAPI was used. Images were captured on a Zeiss Axioskop 2 Plus microscope together with a 63× oil-immersion lens. In this figure, MCF-7 cells that were not permeabilized can be seen to be loaded with CytoCalcein Violet, and this staining is lost once the plasma membrane is permeabilized. […] In this experiment, 0.025% of both Digitonin and TX-100 can be seen to permeabilize the plasma membrane, while 0.25% of both can be seen to permeabilize the whole cell. This modified protocol was used for subsequent testing of the performance of the different detergents with whole blood and PBMCs by flow cytometry, including for the results in FIG. 2.

[3] = tested on: T cells and monocytes in whole blood; assay: Optimal lysis parameters for whole blood in MES-buffered solution (HSP60, Lamin A/C); type: cell-based; details: 5% fixative
Text: FIGS. 5A and 5B. Cytoplasmic vs. Nuclear Membrane Permeabilization in a Whole Blood Sample using the Optimal Buffer Compositions. A) The CD45 vs. SS and FS vs. SS profiles of the samples after lysis. B) The degree of mitochondrial vs. nuclear membrane permeabilization in T cells. C) The degree of mitochondrial vs. nuclear membrane permeabilization in Monocytes. All of the detergent concentrations used in this experiment fully permeabilized the plasma membrane, while HSP60 and Lamin A/C indicate the degree of mitochondrial inner membrane and nuclear membrane permeabilization, respectively.
FIG. 5 indicates the optimal lysis parameters for whole blood, including modified buffer conditions in order to improve RBC lysis. […] In order to improve RBC lysis, the solution was ultimately buffered with MES at a pH between 4.5-6.5 (such as a pH of 5.5), which also allowed the salt concentration to be increased to physiological levels. This further improved the scatter profiles of the WBCs, decreased the time required for complete lysis to approximately 15 minutes, and improved the RBC lysis efficiency to the point that the buffers still work well if the fixation time is extended well beyond protocol (>20 min). At the same time, the fixative concentration was increased to 5% due to improved performance. In FIG. 5A, the scatter profiles for the optimal lysis parameters can be seen, where 0.0625% Digitonin is optimal for cytoplasmic membrane permeabilization, and either 0.5% Digitonin or 0.25% TX-100 are optimal for whole-cell membrane permeabilization. […] In both cases, the permeabilization profiles can be seen to be consistent with the defined optimal detergent concentrations.

[4] = tested on: T cells and monocytes in PBMCs; assay: Digitonin and TX-100 titration on PBMCs, flow cytometry (CytoCalcein Violet loss, HDAC1 staining); type: cell-based; details: for concentration at which the nucleus is also permeabilized: peaked HDAC1 staining
Text: as §1, §2

[5] = tested on: Lymphocytes and Monocytes in whole blood; assay: Performance of detergents with whole blood (alternative approaches); type: cell-based; details: for concentration at which surface markers are lost and cells disintegrate: Buffer 2 upper bound
Experimental: An exemplary kit is composed of two separate buffers for whole-blood mononuclear cells (i.e., lymphocytes+monocytes): 1) The first buffer is to permeabilize the cytoplasm, including the ER, the endosomal system, and the outer mitochondrial membrane, while 2) the second buffer is to permeabilize everything permeabilized by the first buffer, plus the nucleus (and, in some embodiments, the inner mitochondrial matrix). Buffer 1 (Cytoplasm) may be composed of: 1-100 mM MES pH 4.5-6.5, 0-274 mM NaCl, 0-5.4 mM KCl, and 0.01-0.15% Digitonin. The optimal detergent concentration for Buffer 1 is between […] Digitonin, where the cytoplasm is lysed but the nucleus is not. Buffer 2 (Whole Cell) may be composed of: 1-100 mM MES pH 4.5-6.5, 0-274 mM NaCl, 0-5.4 mM KCl, and >0.01% Digitonin or >0.0125% Triton X-100. The optimal detergent concentration for Buffer 2 depends on the sample type, with the upper bound limited by the loss of surface markers and the disintegration of cells that occurs around 2% for both.
The methods of the invention rely on different detergents or detergent concentrations in order to gently lyse the cytoplasm plus as many cytoplasmic components as possible in one tube, and the whole cell including the nucleus in the other tube. For this reason, a variety of detergents will work to accomplish this task. Some are as follows, with reference to their performance with whole blood: […]

[6] = tested on: CREB, RelA and ERK phosphorylation in monocytes; assay: Stimulation of monocytes with LPS or GM-CSF, cytoplasmic vs. nuclear signaling; type: cell-based; details: 1 μg/mL LPS or 100 ng/mL GM-CSF
Experimental: FIG. 8. Differential Signaling in Monocytes Induced by 1 μg/mL LPS vs. 100 ng/mL GM-CSF. A) Both LPS and GM-CSF induced CREB phosphorylation at S133, accumulating maximally in the nucleus by 10 min. B) LPS stimulation induced RelA phosphorylation maximally by 10 min in both the cytoplasm and nucleus, though predominantly in the nucleus. C) Both LPS and GM-CSF stimulated ERK phosphorylation primarily in the cytoplasm, maximally by 5 min for GM-CSF and 10 min for LPS.
The protocol for processing whole blood samples is as follows (see FIG. 1 for a workflow): 1) The sample is first mixed 1:1 with fixative, vortexed, and then incubated for 10 minutes. An extra control tube is included for each buffer, which is stained with all antibodies except for the specific signaling or target antibodies being tested in order to subtract the background signal. The background control may also be labeled with isotype-control antibodies for more precise determination of non-specific binding, especially in cells that have characteristically high non-specific binding, such as neutrophils. For indirect antibody labeling, omitting the primary antibody, but still utilizing the secondary antibody, is a common method for determining the degree of non-specific background signal attributable to the secondary antibody, which is typically higher than the direct conjugates of target antibodies. […] 6) Once stained, the samples are again washed 2× with PBS or wash buffer, resuspended in PBS+0.5% PFA, and read on a flow cytometer.
After data acquisition, the samples are gated, compensated, and analyzed as standard flow cytometry samples. […] For example, if staining for the subcellular distribution of FoxP3, where the Background MFIs for the Cytoplasm and Whole Cell are 1.5 and the raw FoxP3 signal is 3.5 and 31.5 for the Cytoplasm and Whole Cell, respectively, then the Cytoplasmic MFI would be calculated to be 2 (i.e., 3.5 (raw)−1.5 (background)=2) and the Nuclear MFI would be calculated to be 28 (i.e., 31.5 (raw)−1.5 (background)−2 (Cytoplasm)=28). […]

[7] = Precipitation of detergent from solution at reduced pH; type: physicochemical; details: regardless of the concentration
Text: However, the performance of CHAPS decreases at lower pHs, and Sodium Deoxycholate immediately precipitates out of solution at pHs lower than ˜7.0 regardless of the concentration. Therefore, these may be useful for PBMCs or cell lines where a reduced pH is not necessary, but not for whole blood.

Row | Molecule | concentration for complete lysis of the cells [1] | concentration at which the nucleus is also permeabilized [1] | concentration permeabilizing the whole cell (cytoplasmic and nuclear membranes) [2] | concentration permeabilizing only the plasma (cytoplasmic) membrane [2] | optimal concentration for whole-cell membrane permeabilization [3] | concentration for complete lysis of the cells [4] | concentration at which the nucleus is also permeabilized [4] | concentration at which surface markers are lost and cells disintegrate [5] | further results
1 | C[C@@H]1CC[C@@]2(OC1)O[C@H]1[C@@H](O)[C@H]3[C@@H]4CC[C@H]5C[C@@H](O[C@@H]6O[C@H](CO)[C@H](O[C@@H]7O[C@H](CO)[C@@H](O)[C@H](O[C@@H]8OC[C@@H](O)[C@H](O)[C@H]8O)[C@H]7O[C@@H]7O[C@H](CO)[C@H](O)[C@H](O[C@@H]8O[C@H](CO)[C@@H](O)[C@H](O)[C@H]8O)[C@H]7O)[C@H](O)[C@H]6O)[C@H](O)C[C@]5(C)[C@H]4CC[C@]3(C)[C@H]1[C@@H]2C [Digitonin] | 0.25% | around 0.5% | 0.25% | 0.025% | 0.5% | 0.025% | around 0.05% | around 2% | concentration at which the cytoplasmic membrane is fully permeabilized ([1]; reduction in Calcein signal): around 0.031%; optimal concentration for cytoplasmic membrane permeabilization [3]: 0.0625%; concentration at which the cytoplasmic membrane is fully permeabilized ([4]; reduction in Calcein signal): around 0.0016%
2 | GM-CSF: cytokine activator reagent |  |  |  |  |  |  |  |  | time of peak RelA S536 phosphorylation [6]: did not stimulate RelA phosphorylation at S536; time of peak ERK phosphorylation (S202/T204) ([6]; primarily cytoplasm): ≤ 5 min
3 | Sodium Deoxycholate |  |  |  |  |  |  |  |  | pH below which the detergent immediately precipitates out of solution [7]: < 7.0
4 | ethyoxylated octylphenol [TX-100] | 0.125% | ~0.125% | 0.25% | 0.025% | 0.25% | 0.025% | ~0.025% | around 2% | working range where the plasma membrane is lysed but the nucleus is not [1]: does not provide this working range
5 | Octylphenoxypoly(ethylene-oxy)ethanol [NP-40] |  |  |  |  |  |  |  |  | performance compared with TX-100 ([5]; whole blood): performs equivalently to TX-100; also recorded: interchangeable with TX-100 for whole-cell permeabilization
